Reference: patent publication US12049450B2, “Pyridyloxy-carboxylate derivative and preparation method therefor, herbicidal composition, and use” (Qingdao Kingagroot Chemical Compound Co., Ltd., priority 2018, dated 2024)

How the values were obtained:
Assay in all cases: Post-emergence test experiment (greenhouse pot, spray at 2-3 leaf stage)
Format in all cases: in vivo
Settings in all cases: 1000 g/ha; post-emergence spray at 2-3 leaf stage; assessed after 3 weeks; fresh weight inhibition rate
Abutilon theophrasti = tested on: Abutilon theophrasti
In short: (§1)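 Activity graded levels 0-5 by fresh-weight inhibition (level 5 above 85%, level 0 below 5%), assessed 3 weeks after treatment. Plants grown in greenhouse pots were sprayed post-emergence at 2-3 leaves using acetone/tween-80 solutions with methyl oleate synergist (1.5 L/ha).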

Digitaria sanguinalis = tested on: Digitaria sanguinalis
In short: as §1

Echinochloa crusgalli = tested on: Echinochloa crusgalli
In short: as §1

Galium spurium = tested on: Galium spurium
In short: as §1

Monochoria vaginalis = tested on: Monochoria vaginalis
In short: as §1

CC(Oc1nc(F)c(Cl)c(N)c1Cl)C(=O)OCc1cc2ccccc2s1 (stereo not drawn) [Compound 177]
Activity level (growth inhibition rate) Abutilon theophrasti (Abutilon theophrasti): 5 (Level 5: the growth inhibition rate is greater than 85%) | Activity level (growth inhibition rate) Digitaria sanguinalis (Digitaria sanguinalis): 5 (Level 5: the growth inhibition rate is greater than 85%) | Activity level (growth inhibition rate) Echinochloa crusgalli (Echinochloa crusgalli): 5 (Level 5: the growth inhibition rate is greater than 85%) | Activity level (growth inhibition rate) Galium spurium (Galium spurium): 5 (Level 5: the growth inhibition rate is greater than 85%) | Activity level (growth inhibition rate) Monochoria Vaginalis (Monochoria vaginalis): 5 (Level 5: the growth inhibition rate is greater than 85%)

CC(Oc1nc(F)c(Cl)c(N)c1Cl)C(=O)SCc1ccccc1N=[N+]=[N-] (stereo not drawn) [Compound 94]
Activity level (growth inhibition rate) Abutilon theophrasti (Abutilon theophrasti): 5 (Level 5: the growth inhibition rate is greater than 85%) | Activity level (growth inhibition rate) Digitaria sanguinalis (Digitaria sanguinalis): 5 (Level 5: the growth inhibition rate is greater than 85%) | Activity level (growth inhibition rate) Echinochloa crusgalli (Echinochloa crusgalli): 5 (Level 5: the growth inhibition rate is greater than 85%) | Activity level (growth inhibition rate) Galium spurium (Galium spurium): 5 (Level 5: the growth inhibition rate is greater than 85%) | Activity level (growth inhibition rate) Monochoria Vaginalis (Monochoria vaginalis): 5 (Level 5: the growth inhibition rate is greater than 85%)

CCOC(=O)Nc1cccc(CSC(=O)C(C)Oc2nc(F)c(Cl)c(N)c2Cl)c1 (racemic) [Compound 109]
Activity level (growth inhibition rate) Abutilon theophrasti (Abutilon theophrasti): 5 (Level 5: the growth inhibition rate is greater than 85%) | Activity level (growth inhibition rate) Digitaria sanguinalis (Digitaria sanguinalis): 5 (Level 5: the growth inhibition rate is greater than 85%) | Activity level (growth inhibition rate) Echinochloa crusgalli (Echinochloa crusgalli): 5 (Level 5: the growth inhibition rate is greater than 85%) | Activity level (growth inhibition rate) Galium spurium (Galium spurium): 5 (Level 5: the growth inhibition rate is greater than 85%) | Activity level (growth inhibition rate) Monochoria Vaginalis (Monochoria vaginalis): 5 (Level 5: the growth inhibition rate is greater than 85%)

CC(Oc1nc(F)c(Cl)c(N)c1Cl)C(=O)OCc1cccc(Cl)c1 (stereo not drawn) [Compound 203]
Activity level (growth inhibition rate) Abutilon theophrasti (Abutilon theophrasti): 5 (Level 5: the growth inhibition rate is greater than 85%) | Activity level (growth inhibition rate) Digitaria sanguinalis (Digitaria sanguinalis): 5 (Level 5: the growth inhibition rate is greater than 85%) | Activity level (growth inhibition rate) Echinochloa crusgalli (Echinochloa crusgalli): 5 (Level 5: the growth inhibition rate is greater than 85%) | Activity level (growth inhibition rate) Galium spurium (Galium spurium): 5 (Level 5: the growth inhibition rate is greater than 85%) | Activity level (growth inhibition rate) Monochoria Vaginalis (Monochoria vaginalis): 5 (Level 5: the growth inhibition rate is greater than 85%)

Cc1cc(COC(=O)C(C)Oc2nc(F)c(Cl)c(N)c2Cl)n(C)n1 (stereo not drawn) [Compound 127]
Activity level (growth inhibition rate) Abutilon theophrasti (Abutilon theophrasti): 5 (Level 5: the growth inhibition rate is greater than 85%) | Activity level (growth inhibition rate) Digitaria sanguinalis (Digitaria sanguinalis): 5 (Level 5: the growth inhibition rate is greater than 85%) | Activity level (growth inhibition rate) Echinochloa crusgalli (Echinochloa crusgalli): 5 (Level 5: the growth inhibition rate is greater than 85%) | Activity level (growth inhibition rate) Galium spurium (Galium spurium): 5 (Level 5: the growth inhibition rate is greater than 85%) | Activity level (growth inhibition rate) Monochoria Vaginalis (Monochoria vaginalis): 5 (Level 5: the growth inhibition rate is greater than 85%)

CC(Oc1nc(F)c(Cl)c(N)c1Cl)C(=O)OCc1ccc2c(c1)OCCO2 (stereo not drawn) [Compound 189]
Activity level (growth inhibition rate) Abutilon theophrasti (Abutilon theophrasti): 5 (Level 5: the growth inhibition rate is greater than 85%) | Activity level (growth inhibition rate) Digitaria sanguinalis (Digitaria sanguinalis): 5 (Level 5: the growth inhibition rate is greater than 85%) | Activity level (growth inhibition rate) Echinochloa crusgalli (Echinochloa crusgalli): 5 (Level 5: the growth inhibition rate is greater than 85%) | Activity level (growth inhibition rate) Galium spurium (Galium spurium): 5 (Level 5: the growth inhibition rate is greater than 85%) | Activity level (growth inhibition rate) Monochoria Vaginalis (Monochoria vaginalis): 5 (Level 5: the growth inhibition rate is greater than 85%)

CC(Oc1nc(F)c(Cl)c(N)c1Cl)C(=O)SCc1ccc(F)cc1 (stereo not drawn) [Compound 223]
Activity level (growth inhibition rate) Abutilon theophrasti (Abutilon theophrasti): 5 (Level 5: the growth inhibition rate is greater than 85%) | Activity level (growth inhibition rate) Digitaria sanguinalis (Digitaria sanguinalis): 5 (Level 5: the growth inhibition rate is greater than 85%) | Activity level (growth inhibition rate) Echinochloa crusgalli (Echinochloa crusgalli): 5 (Level 5: the growth inhibition rate is greater than 85%) | Activity level (growth inhibition rate) Galium spurium (Galium spurium): 5 (Level 5: the growth inhibition rate is greater than 85%) | Activity level (growth inhibition rate) Monochoria Vaginalis (Monochoria vaginalis): 5 (Level 5: the growth inhibition rate is greater than 85%)

CC(Oc1nc(F)c(Cl)c(N)c1Cl)C(=O)OCc1ccccc1C(F)(F)F (stereo not drawn) [Compound 208]
Activity level (growth inhibition rate) Abutilon theophrasti (Abutilon theophrasti): 5 (Level 5: the growth inhibition rate is greater than 85%) | Activity level (growth inhibition rate) Digitaria sanguinalis (Digitaria sanguinalis): 5 (Level 5: the growth inhibition rate is greater than 85%) | Activity level (growth inhibition rate) Echinochloa crusgalli (Echinochloa crusgalli): 5 (Level 5: the growth inhibition rate is greater than 85%) | Activity level (growth inhibition rate) Galium spurium (Galium spurium): 5 (Level 5: the growth inhibition rate is greater than 85%) | Activity level (growth inhibition rate) Monochoria Vaginalis (Monochoria vaginalis): 5 (Level 5: the growth inhibition rate is greater than 85%)

CC(Oc1nc(F)c(Cl)c(N)c1Cl)C(=O)SCc1ccccc1Br (stereo not drawn) [Compound 229]
Activity level (growth inhibition rate) Abutilon theophrasti (Abutilon theophrasti): 5 (Level 5: the growth inhibition rate is greater than 85%) | Activity level (growth inhibition rate) Digitaria sanguinalis (Digitaria sanguinalis): 5 (Level 5: the growth inhibition rate is greater than 85%) | Activity level (growth inhibition rate) Echinochloa crusgalli (Echinochloa crusgalli): 5 (Level 5: the growth inhibition rate is greater than 85%) | Activity level (growth inhibition rate) Galium spurium (Galium spurium): 5 (Level 5: the growth inhibition rate is greater than 85%) | Activity level (growth inhibition rate) Monochoria Vaginalis (Monochoria vaginalis): 5 (Level 5: the growth inhibition rate is greater than 85%)

CC(Oc1nc(F)c(Cl)c(N)c1Cl)C(=O)OCC1C=C2C=CC=CC2N1 (stereo not drawn) [Compound 169]
Activity level (growth inhibition rate) Abutilon theophrasti (Abutilon theophrasti): 5 (Level 5: the growth inhibition rate is greater than 85%) | Activity level (growth inhibition rate) Digitaria sanguinalis (Digitaria sanguinalis): 5 (Level 5: the growth inhibition rate is greater than 85%) | Activity level (growth inhibition rate) Echinochloa crusgalli (Echinochloa crusgalli): 5 (Level 5: the growth inhibition rate is greater than 85%) | Activity level (growth inhibition rate) Galium spurium (Galium spurium): 5 (Level 5: the growth inhibition rate is greater than 85%) | Activity level (growth inhibition rate) Monochoria Vaginalis (Monochoria vaginalis): 5 (Level 5: the growth inhibition rate is greater than 85%)

CC(Oc1nc(F)c(Cl)c(N)c1C1CC1)C(=O)OCc1ccccc1 (stereo not drawn) [Compound 22]
Activity level (growth inhibition rate) Abutilon theophrasti (Abutilon theophrasti): 5 (Level 5: the growth inhibition rate is greater than 85%) | Activity level (growth inhibition rate) Digitaria sanguinalis (Digitaria sanguinalis): 5 (Level 5: the growth inhibition rate is greater than 85%) | Activity level (growth inhibition rate) Echinochloa crusgalli (Echinochloa crusgalli): 5 (Level 5: the growth inhibition rate is greater than 85%) | Activity level (growth inhibition rate) Galium spurium (Galium spurium): 5 (Level 5: the growth inhibition rate is greater than 85%) | Activity level (growth inhibition rate) Monochoria Vaginalis (Monochoria vaginalis): 5 (Level 5: the growth inhibition rate is greater than 85%)

CCOCc1cccc(C(C)OC(=O)C(C)Oc2nc(F)c(Cl)c(N)c2Cl)c1 (stereo not drawn) [Compound 100]
Activity level (growth inhibition rate) Abutilon theophrasti (Abutilon theophrasti): 5 (Level 5: the growth inhibition rate is greater than 85%) | Activity level (growth inhibition rate) Digitaria sanguinalis (Digitaria sanguinalis): 5 (Level 5: the growth inhibition rate is greater than 85%) | Activity level (growth inhibition rate) Echinochloa crusgalli (Echinochloa crusgalli): 5 (Level 5: the growth inhibition rate is greater than 85%) | Activity level (growth inhibition rate) Galium spurium (Galium spurium): 5 (Level 5: the growth inhibition rate is greater than 85%) | Activity level (growth inhibition rate) Monochoria Vaginalis (Monochoria vaginalis): 5 (Level 5: the growth inhibition rate is greater than 85%)

CC(Oc1nc(F)c(Cl)c(N)c1Cl)C(=O)SCc1cccs1 (stereo not drawn) [Compound 154]
Activity level (growth inhibition rate) Abutilon theophrasti (Abutilon theophrasti): 5 (Level 5: the growth inhibition rate is greater than 85%) | Activity level (growth inhibition rate) Digitaria sanguinalis (Digitaria sanguinalis): 5 (Level 5: the growth inhibition rate is greater than 85%) | Activity level (growth inhibition rate) Echinochloa crusgalli (Echinochloa crusgalli): 5 (Level 5: the growth inhibition rate is greater than 85%) | Activity level (growth inhibition rate) Galium spurium (Galium spurium): 5 (Level 5: the growth inhibition rate is greater than 85%) | Activity level (growth inhibition rate) Monochoria Vaginalis (Monochoria vaginalis): 5 (Level 5: the growth inhibition rate is greater than 85%)

CC(Oc1nc(F)c(Cl)c(N)c1Cl)C(=O)OCc1nc2ccccc2s1 (stereo not drawn) [Compound 178]
Activity level (growth inhibition rate) Abutilon theophrasti (Abutilon theophrasti): 5 (Level 5: the growth inhibition rate is greater than 85%) | Activity level (growth inhibition rate) Digitaria sanguinalis (Digitaria sanguinalis): 5 (Level 5: the growth inhibition rate is greater than 85%) | Activity level (growth inhibition rate) Echinochloa crusgalli (Echinochloa crusgalli): 5 (Level 5: the growth inhibition rate is greater than 85%) | Activity level (growth inhibition rate) Galium spurium (Galium spurium): 5 (Level 5: the growth inhibition rate is greater than 85%) | Activity level (growth inhibition rate) Monochoria Vaginalis (Monochoria vaginalis): 5 (Level 5: the growth inhibition rate is greater than 85%)

CCCc1c(OC(C)C(=O)OCc2ccccc2)nc(Br)c(Cl)c1N (stereo not drawn) [Compound 18]
Activity level (growth inhibition rate) Abutilon theophrasti (Abutilon theophrasti): 5 (Level 5: the growth inhibition rate is greater than 85%) | Activity level (growth inhibition rate) Digitaria sanguinalis (Digitaria sanguinalis): 5 (Level 5: the growth inhibition rate is greater than 85%) | Activity level (growth inhibition rate) Echinochloa crusgalli (Echinochloa crusgalli): 5 (Level 5: the growth inhibition rate is greater than 85%) | Activity level (growth inhibition rate) Galium spurium (Galium spurium): 5 (Level 5: the growth inhibition rate is greater than 85%) | Activity level (growth inhibition rate) Monochoria Vaginalis (Monochoria vaginalis): 5 (Level 5: the growth inhibition rate is greater than 85%)
